Measurements published in US9238020B2, “Compositions comprising enzyme-cleavable phenol-modified tapentadol prodrug” (priority 2010, dated 2016).
Entries after “also recorded” stand apart in the source; their conditions may differ. Where a name gives a salt, the structure may show the parent alone. Read-outs that look alike come from different tables or passages of the source.

What was measured:
[1] = Oral administration of tapentadol prodrugs with or without co-dose of trypsin inhibitor Compound 109 to rats; assay type: in vivo, rat; conditions: by suppressing Cmax and AUC and/or delaying Tmax
Experimental: Saline solutions of Compound TP-1 (which can be prepared as described in the examples herein) were dosed at 39 μmol/kg (25 mg/kg) with or without a co-dose of 55 μmol/kg (30 mg/kg) Compound 109 (Catalog No. 3081, Tocris Bioscience, Ellisville, Mo., USA or Catalog No. WS38665, Waterstone Technology, Carmel, Ind., USA) as indicated in Table 3 via oral gavage into jugular vein-cannulated male Sprague Dawley rats (4 per groups) that had been fasted for 16-18 hr prior to oral dosing. At specified time points, blood samples were drawn, harvested for plasma via centrifugation at 5,400 rpm at 4° C. for 5 min, and 100 μl plasma transferred from each sample into a fresh tube containing 2 μl of 50% formic acid. The tubes were vortexed for 5-10 seconds, immediately placed in dry ice and then stored in a −80° C. freezer until analysis by HPLC/MS.
Table 3 and FIG. 5 provide tapentadol exposure results for rats administered with Compound TP-1 in the absence or presence of trypsin inhibitor.
Saline solutions of Compound TP-3 or Compound TP-4 (which can be prepared as described in the examples herein) were dosed as indicated in Table 9 and according to the procedures as described in Example 13. Sampling and analysis procedures were as described in Example 13. […]

[2] = Pharmacokinetics of tapentadol release following PO administration of prodrugs or tapentadol to rats; assay type: in vivo, rat; conditions: approximately equimole amounts
Experimental: Saline solutions of Compound TP-1 (which can be prepared as described in the examples herein) were dosed as indicated in Table 1 via oral gavage into 4 jugular vein-cannulated male Sprague Dawley rats that had been fasted for 16-18 hr prior to oral dosing. At specified time points, blood samples were drawn, harvested for plasma via centrifugation at 5,400 rpm at 4° C. for 5 min, and 100 microliters (μl) plasma transferred from each sample into a fresh tube containing 2 μl of 50% formic acid. The tubes were vortexed for 5-10 seconds, immediately placed in dry ice and then stored in a −80° C. freezer until analysis by HPLC/MS.
Saline solutions of Compounds TP-1, TP-3, TP-4, (which can be prepared as described in the examples herein) or tapentadol were dosed in approximately equimole amounts as indicated in Table 6. Dose administration, sampling and analysis procedures were as described in Example 11.
Dosing, sampling and analysis procedures were as described in Example 11.

[3] = biological target: T1, trypsin from bovine pancreas (Bos taurus, UniProt P00760); assay: In vitro trypsin conversion of prodrug to tapentadol and inhibition thereof by Compound 109; assay type: biochemical; conditions: Table 8, 4815 BAEE U trypsin/mL
T1 construct: purchased Sigma-Aldrich T8003; host or cells: bovine pancreas
T1 sequence (P00760 24-246): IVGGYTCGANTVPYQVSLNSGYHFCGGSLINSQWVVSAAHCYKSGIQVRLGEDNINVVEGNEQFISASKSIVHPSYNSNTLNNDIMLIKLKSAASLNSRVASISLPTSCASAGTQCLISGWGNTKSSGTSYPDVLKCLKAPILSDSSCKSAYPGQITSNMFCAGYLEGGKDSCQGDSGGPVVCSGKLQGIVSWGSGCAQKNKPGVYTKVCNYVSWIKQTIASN
Experimental: (§1) Compound TP-1 was incubated with trypsin from bovine pancreas (Catalog No. T8003, Type I, ˜10,000 BAEE units/mg protein, Sigma-Aldrich). Specifically, the reactions included 0.761 nM of Compound TP-1•2HCl, 22.5 mM calcium chloride, 40 to 172 mM Tris pH 8 and 0.25% DMSO with the BAEE units of trypsin indicated in Table 4. The reactions were conducted at 37° C. for 24 hr. Samples were collected at specified time points, transferred into 0.5% formic acid in acetonitrile to stop trypsin activity and stored at less than −70° C. until analysis by LC-MS/MS.
(§2) Compound TP-1 was also incubated in the presence of 2 micromolar (μM) trypsin inhibitor Compound 109. In that case, Compound TP-1 was added 5 min after the other incubation components. Other reaction and sample treatment conditions were as described above.
(§3) Table 4 indicates the results of exposure of Compound TP-1 to trypsin in the absence or presence of trypsin inhibitor. The results are expressed as half-life of prodrug when exposed to trypsin (i.e., Prodrug trypsin half-life) in hours and rate of tapentadol (TP) formation in umol/h/BAEE U trypsin.
(§4) Compound TP-1, Compound TP-3, or Compound TP-4 (which can be prepared as described in the examples herein) were incubated in the absence or presence of Compound 109 as shown in Table 8. Incubations and analysis procedures were as described in Example 14.

trypsin = biological target: T2, trypsin (Bos taurus, UniProt P00760); assay: as above; assay type: biochemical, bovine; conditions: bovine, trypsin from bovine pancreas, Table 8, 4815 BAEE U trypsin/mL, read-out: Pro-drug trypsin half-life, Average ± sd (converted)
T2 construct: purchased Sigma-Aldrich T8003; host or cells: bovine pancreas
T2 sequence (P00760 24-246): T1 sequence (P00760 24-246)
Experimental: as §1, §2, §3, §4

[4] = Pharmacokinetics of prodrug and tapentadol following IV administration to rats; conditions: male, Sprague Dawley, in vivo; Table 7; prodrug in rat plasma; IV 2 mg/kg; read-out: Prodrug Cmax ± sd
Experimental: Compound TP-1 (which can be prepared as described in the examples herein) was dissolved in saline and injected into the tail vein of 4 jugular vein-cannulated male Sprague Dawley rats at a dose of 2 mg/kg. At specified time points, blood samples were drawn, harvested for plasma via centrifugation at 5,400 rpm at 4° C. for 5 min, and 100 μl plasma transferred from each sample into a fresh tube containing 2 μl of 50% formic acid. The tubes were vortexed for 5-10 seconds, immediately placed in dry ice and then stored in a −80° C. freezer until analysis by high performance liquid chromatography/mass spectrometry (HPLC/MS).
Table 2 and FIG. 4 provide Compound TP-1 and tapentadol exposure results for rats administered Compound TP-1 intravenously. Results in Table 2 are reported as maximum plasma concentration (Cmax) of Compound TP-1 and tapentadol (TP), respectively, (average±standard deviation).
Compound TP-3 or Compound TP-4 (which can be prepared as described in the examples herein), or tapentadol were dissolved in saline and injected into the tail vein of four jugular vein-cannulated male Sprague Dawley rats at a dose of 2 mg/kg. Sampling and analysis procedures were as described in Example 12.

[5] = system: norepinephrine uptake into rat hypothalamus synaptosomes; assay: In vitro functional norepinephrine uptake assay; assay type: biochemical
Experimental: The general procedure follows the protocol described by S. Perovic and W. E. G. Muller, 1995, Arzneim-Forsch. Drug Res. 45, 1145-1148. More specifically, the assays included each of the compounds indicated in Table 13 and rat hypothalamus synaptosomes incubated with 0.2 μCi/mL [^3H] norepinephrine. For a control reaction, protriptyline was used. The reaction mixtures were incubated at 37° C. for 20 min, and the reaction product of [^3H] norepinephrine incorporation into the synaptosomes was measured by scintillation counting. IC50 values (concentration causing a half-maximal inhibition of control specific activity) were determined by non-linear regression fit using Hill plot software.

human μ-opioid receptor = human μ-opioid receptor (Homo sapiens, UniProt P35372); assay: In vitro human μ-opioid receptor agonist cellular functional assay (cAMP, CHO cells); assay type: cell-based; parameters: expressed in transfected cells; conditions: CHO cells expressing human μ-opioid receptor, 37° C., 10 min
Sequence of human μ-opioid receptor (P35372 whole entry): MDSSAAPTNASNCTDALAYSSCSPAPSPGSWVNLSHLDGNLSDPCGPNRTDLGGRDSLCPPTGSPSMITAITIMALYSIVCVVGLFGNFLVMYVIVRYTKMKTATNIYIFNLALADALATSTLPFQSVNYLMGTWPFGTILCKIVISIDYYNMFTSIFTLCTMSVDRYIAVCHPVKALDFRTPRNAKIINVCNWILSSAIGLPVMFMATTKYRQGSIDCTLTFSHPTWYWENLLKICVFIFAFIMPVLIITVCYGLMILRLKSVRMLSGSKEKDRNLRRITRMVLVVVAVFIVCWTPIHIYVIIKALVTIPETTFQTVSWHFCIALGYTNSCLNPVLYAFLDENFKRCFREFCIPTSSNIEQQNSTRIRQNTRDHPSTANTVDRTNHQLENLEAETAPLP
Experimental: The general procedure follows the protocol described by J.-B. Wang, et al, ibid. More specifically, the assay included as appropriate, Compound TP-1 or tapentadol and recombinant Chinese hamster ovary (CHO) cells expressing the human μ-opioid receptor on their cell surfaces. The control reaction included 1 μM DAMGO. The reaction mixtures were incubated at 37° C. for 10 min, and the reaction product was cyclic AMP (cAMP). The samples were submitted to homogeneous time resolved fluorescence (HTRF®). EC50 values (concentration producing a half-maximal specific response) were determined by non-linear regression fit using Hill plot software.

[6] = Plasma and cerebrospinal fluid penetration following IV administration to rats; assay type: in vivo, rat; conditions: rats, IV, 2 minutes after dosing
Experimental: Compound TP-1 (which can be prepared as described in the examples herein) at a dose of 10 mg/kg, or tapentadol, at a dose of 4 mg/kg, were dissolved in saline and injected into the tail vein of 4 male Sprague Dawley rats. These doses represent approximately equimole amounts. After 2 minutes, the rats were anesthetized by carbon dioxide asphyxiation, blood samples were drawn and harvested for plasma by centrifugation at 5,400 rpm at 4° C. for 5 min, and 100 μl plasma was transferred from each sample into a fresh tube containing 2 μl of 50% formic acid. The CSF fluid was collected using a 22×1 inch gauge needle connected to polyurethane catheter type MRE-040 tubing (Braintree Scientific, Inc., Braintree, Mass.). The needle was inserted just below the nuchal crest at the area of the foramen magnum, and clear CSF fluid was collected into the catheter and transferred into a collection tube. The CSF samples were centrifuged at 5,400 rpm at 4° C. for 5 min, and 100 μl CSF fluid was transferred from each sample into a fresh tube. The plasma and CSF samples were immediately placed in dry ice and then stored in a −80° C. freezer until analysis by high performance liquid chromatography/mass spectrometry (HPLC/MS). In order to study Compound TP-1 and tapentadol plasma and CSF penetration over time, additional groups of 4 rats were administered compounds as described above and anesthetized at specified time points. Plasma and CSF were collected and analyzed as described above.
Results in Table 14 are reported, for each group of four rats, as mean concentrations of the indicated compounds in plasma or CSF. Table 14 also provides the plasma-to-CSF (plasma/CSF) partitioning coefficient, i.e., the ratio of concentration in the plasma to concentration in the CSF of the indicated compounds.

[7] = pH 8, with Compound 109 (trypsin inhibitor), Compound 109 40 μM
[8] = TP-1 10 mg/kg, tapentadol 4 mg/kg

| SMILES | effect of co-dosed Compound 109 on release of tapentadol from prodrug [1] | tapentadol plasma concentration profile compared to administration of tapentadol [2] | Rate of TP formation, Average ± sd ([3]; Compound 109 0 μM) [umol/h/BAEE U] | Rate of TP formation, Average ± sd ([3]; Compound 109 40 μM) [umol/h/BAEE U] | half-life at 0.761 nM (trypsin; [7]) [h] | half-life at 0.761 nM (trypsin; pH 8, Compound 109 0 μM) [h] | Cmax [4] [ng/mL] | IC50 ([5]; [3H] norepinephrine incorporation into rat hypothalamus synaptosomes, 37° C., 20 min) [nM] | activity as a norepinephrine reuptake inhibitor ([5]; rat hypothalamus synaptosomes) | agonist response in the μ-opioid receptor functional assay (human μ-opioid receptor) | Compound conc. in CSF [6, 8] [ng/mL] | Compound conc. in Plasma [6, 8] [ng/mL] | Plasma/CSF partitioning coefficient ([6]; ratio of concentration in plasma to concentration in CSF) |
| --- | --- | --- | --- | --- | --- | --- | --- | --- | --- | --- | --- | --- | --- |
| N=C(N)c1ccc2cc(OC(=O)c3ccc(N=C(N)N)cc3)ccc2c1 [Compound 109, 6-carbamimidoylnaphthalen-2-yl 4-(diaminomethyleneamino)benzoate] | attenuates Compound TP-1's ability to release tapentadol; also recorded: attenuates the abilities of both Compound TP-3 and Compound TP-4 to release tapentadol; also recorded: can attenuate the abilities of both Compound TP-1 and Compound TP-3 to release tapentadol |  |  |  |  |  |  |  |  |  |  |  |  |
| CC[C@@H](c1cccc(OC(=O)N(C)CCNC(=O)[C@H](CCCCN)NC(=O)CC(=O)O)c1)[C@@H](C)CN(C)C [Compound TP-3, N—[(S)-5-Amino-1-(2-{[3-((1R,2R)-3-dimethylamino-1-ethyl-2-methyl-propyl)-phenoxycarbonyl]-methyl-amino}-ethylcarbamoyl)-pentyl]-malonamic acid] |  | suppressed Cmax and delayed Tmax | 0.0258 ± 0.0024 | 0.0048 ± 0.0000 | 12.2 ± 0.33 | 0.271 ± 0.0023 | 1460 ± 99 |  |  |  |  |  |  |
| CC[C@@H](c1cccc(OC(=O)N(C)CC(C)(C)CNC(=O)[C@H](CCCNC(=N)N)NC(=O)CC(=O)O)c1)[C@@H](C)CN(C)C [Compound TP-4, N—[(S)-1-(3-{[3-((1R,2R)-3-Dimethylamino-1-ethyl-2-methyl-propyl)-phenoxycarbonyl]-methyl-amino}-2,2-dimethyl-propylcarbamoyl)-4-guanidino-butyl]-malonamic acid] |  | suppressed Cmax and delayed Tmax | 0.0753 ± 0.0007 | 0.028 ± 0.0004 | 1.76 ± 0.22 | 0.0823 ± 0.0028 | 988 ± 89 |  |  |  |  |  |  |
| CC[C@@H](c1cccc(O)c1)[C@@H](C)CN(C)C [Tapentadol, 3-[(1R,2R)-3-(dimethylamino)-1-ethyl-2-methylpropyl]phenol hydrochloride] |  |  |  |  |  |  |  | 390 | has activity as a norepinephrine reuptake inhibitor | no response up to a concentration of 10 μM | 179 | 1870 | 10.4 |
